Source: US20090227575A1, “7H-PYRROLO[2,3-H]QUINAZOLINE COMPOUNDS, THEIR USE AS mTOR KINASE AND PI3 KINASE INHIBITORS, AND THEIR [sequence]” (Wyeth, priority 2008, published 2009)
Where two headings read alike, the source gives them in different places.

How the values were obtained:
Format in all cases: biochemical
[1] = molecular target: Human mTOR (Homo sapiens, UniProt P42345); test: mTOR kinase assay (DELFIA format, purified enzyme); set-up: FLAG
[2] = molecular target: PI3K-gamma (Homo sapiens, UniProt P48736); test: PI3K-gamma fluorescence polarization assay; conditions: read-out: PI3 Kinase γ IC50
In short: (§1)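 Diluted enzyme and compound (1% DMSO) reacted with diC8 PIP2 and ATP substrate in 20 mM HEPES pH 7.5, 2 mM MgCl2, 0.05% CHAPS for 30–60 min. Stopped with EDTA buffer holding 10 nM TAMRA probe and 70 nM GST-GRP. FP (mP) read after 30–90 min against zero-time and no-enzyme controls.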

[3] = molecular target: PI3K-alpha (Homo sapiens, UniProt P42336); test: PI3K-alpha fluorescence polarization assay; conditions: read-out: PI3 Kinase α IC50
In short: as §1

[4] = molecular target: human SMG-1 (hSMG-1) (Homo sapiens, UniProt Q96Q15); test: hSMG-1 kinase assay (DELFIA); conditions: read-out: hSMG1 IC50

PI3K-alpha, sequence (P42336 whole entry, species assumed): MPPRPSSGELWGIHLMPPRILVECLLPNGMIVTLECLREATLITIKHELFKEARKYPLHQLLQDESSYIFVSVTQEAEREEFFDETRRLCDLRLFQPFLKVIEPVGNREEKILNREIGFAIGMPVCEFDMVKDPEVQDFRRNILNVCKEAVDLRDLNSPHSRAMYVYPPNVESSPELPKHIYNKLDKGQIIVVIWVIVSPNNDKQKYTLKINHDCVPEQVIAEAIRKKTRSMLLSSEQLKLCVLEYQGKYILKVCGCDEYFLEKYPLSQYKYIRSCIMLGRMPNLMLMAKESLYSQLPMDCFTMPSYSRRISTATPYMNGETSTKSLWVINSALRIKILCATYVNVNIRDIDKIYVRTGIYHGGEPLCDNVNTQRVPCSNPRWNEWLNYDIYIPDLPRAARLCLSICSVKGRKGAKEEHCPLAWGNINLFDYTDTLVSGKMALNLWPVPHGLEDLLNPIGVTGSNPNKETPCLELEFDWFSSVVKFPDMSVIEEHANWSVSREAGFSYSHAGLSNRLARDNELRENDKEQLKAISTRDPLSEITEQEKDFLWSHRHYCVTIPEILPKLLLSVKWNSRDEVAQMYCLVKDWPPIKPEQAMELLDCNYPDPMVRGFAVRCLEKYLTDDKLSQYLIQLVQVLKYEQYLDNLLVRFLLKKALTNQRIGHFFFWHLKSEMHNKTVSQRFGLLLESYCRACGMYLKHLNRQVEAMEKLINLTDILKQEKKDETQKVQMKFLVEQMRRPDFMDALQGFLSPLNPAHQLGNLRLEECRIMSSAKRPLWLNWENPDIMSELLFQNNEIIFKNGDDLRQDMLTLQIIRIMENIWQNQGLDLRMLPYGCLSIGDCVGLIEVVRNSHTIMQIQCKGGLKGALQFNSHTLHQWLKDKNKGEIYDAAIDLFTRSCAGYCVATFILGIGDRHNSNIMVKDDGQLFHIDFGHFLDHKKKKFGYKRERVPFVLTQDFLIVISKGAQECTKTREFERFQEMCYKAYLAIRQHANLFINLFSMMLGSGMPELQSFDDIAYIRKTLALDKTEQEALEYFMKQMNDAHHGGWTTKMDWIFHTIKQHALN
PI3K-alpha, sequence (P27986 whole entry partner, species assumed): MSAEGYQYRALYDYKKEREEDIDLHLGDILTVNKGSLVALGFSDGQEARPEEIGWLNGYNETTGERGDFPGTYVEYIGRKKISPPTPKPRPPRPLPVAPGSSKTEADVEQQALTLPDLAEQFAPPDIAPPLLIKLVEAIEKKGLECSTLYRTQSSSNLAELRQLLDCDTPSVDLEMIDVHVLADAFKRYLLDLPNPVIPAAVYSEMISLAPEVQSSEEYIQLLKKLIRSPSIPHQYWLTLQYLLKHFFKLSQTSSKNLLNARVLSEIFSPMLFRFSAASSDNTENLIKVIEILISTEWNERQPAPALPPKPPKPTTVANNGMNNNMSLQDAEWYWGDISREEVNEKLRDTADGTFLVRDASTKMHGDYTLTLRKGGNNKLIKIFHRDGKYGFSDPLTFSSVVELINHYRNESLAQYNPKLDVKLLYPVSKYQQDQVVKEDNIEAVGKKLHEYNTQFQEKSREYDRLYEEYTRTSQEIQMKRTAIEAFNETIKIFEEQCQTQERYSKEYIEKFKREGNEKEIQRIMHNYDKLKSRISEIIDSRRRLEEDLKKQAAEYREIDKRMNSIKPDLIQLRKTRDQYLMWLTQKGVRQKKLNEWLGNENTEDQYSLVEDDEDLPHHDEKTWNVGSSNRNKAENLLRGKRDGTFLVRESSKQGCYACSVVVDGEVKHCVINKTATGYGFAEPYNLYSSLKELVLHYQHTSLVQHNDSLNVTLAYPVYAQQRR
PI3K-gamma, sequence (P48736 whole entry, species assumed): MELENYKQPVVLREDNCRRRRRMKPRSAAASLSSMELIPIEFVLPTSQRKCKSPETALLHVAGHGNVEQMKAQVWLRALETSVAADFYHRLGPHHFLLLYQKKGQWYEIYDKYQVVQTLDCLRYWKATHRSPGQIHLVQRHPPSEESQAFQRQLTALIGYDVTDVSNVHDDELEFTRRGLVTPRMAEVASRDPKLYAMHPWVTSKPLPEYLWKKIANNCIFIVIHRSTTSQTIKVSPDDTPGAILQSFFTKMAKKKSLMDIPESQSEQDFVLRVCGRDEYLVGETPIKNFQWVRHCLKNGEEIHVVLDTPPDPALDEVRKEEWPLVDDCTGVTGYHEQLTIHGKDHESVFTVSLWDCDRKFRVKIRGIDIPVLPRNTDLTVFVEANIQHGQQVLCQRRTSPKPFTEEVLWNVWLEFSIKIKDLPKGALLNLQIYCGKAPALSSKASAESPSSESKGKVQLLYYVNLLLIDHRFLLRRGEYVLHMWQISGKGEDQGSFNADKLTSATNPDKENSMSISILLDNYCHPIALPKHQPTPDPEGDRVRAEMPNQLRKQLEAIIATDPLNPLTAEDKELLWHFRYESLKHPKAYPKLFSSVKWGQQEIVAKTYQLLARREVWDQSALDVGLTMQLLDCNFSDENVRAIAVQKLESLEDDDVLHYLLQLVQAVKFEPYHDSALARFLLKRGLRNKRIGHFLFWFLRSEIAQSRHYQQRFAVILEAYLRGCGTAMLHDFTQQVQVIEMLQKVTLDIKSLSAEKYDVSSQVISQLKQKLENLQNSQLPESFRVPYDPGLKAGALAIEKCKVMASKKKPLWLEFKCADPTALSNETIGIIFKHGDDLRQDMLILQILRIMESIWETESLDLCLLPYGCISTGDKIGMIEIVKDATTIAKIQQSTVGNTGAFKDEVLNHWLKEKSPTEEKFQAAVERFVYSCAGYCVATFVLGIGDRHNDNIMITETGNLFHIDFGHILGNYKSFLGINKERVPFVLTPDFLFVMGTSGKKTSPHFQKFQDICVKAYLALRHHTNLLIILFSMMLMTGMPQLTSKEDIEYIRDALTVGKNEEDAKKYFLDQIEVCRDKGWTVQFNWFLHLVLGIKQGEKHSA

| Structure (SMILES) | IC50 ([1]; read-out: TOR Kinase IC50) [nM] | IC50 [2] [nM] | IC50 [3] [nM] | IC50 [4] [nM] | IC50 [1] [nM] |
| --- | --- | --- | --- | --- | --- |
| Cn1ccc2c3nc(-c4cccc5[nH]ncc45)nc(N4CCOCC4)c3ccc21 [Example 79, 2-(1H-indazol-4-yl)-7-methyl-4-morpholin-4-yl-7H-pyrrolo[2,3-h]quinazoline] | 435 | 6090 | 1080 |  |  |
| c1cc(-c2nc(N3CCOCC3)c3ccc4[nH]ccc4c3n2)c2cn[nH]c2c1 [Example 80, 2-(1H-indazol-4-yl)-4-morpholin-4-yl-7H-pyrrolo[2,3-h]quinazoline] | 2080 | > 10000 | 10300 |  |  |
| O=Cc1c[nH]c2ccc3c(N4CCOCC4)nc(-c4cccc(O)c4)nc3c12 [Example 82, 2-(3-hydroxyphenyl)-4-morpholin-4-yl-7H-pyrrolo[2,3-h]quinazoline-9-carbaldehyde] | 16 | 147 | 111 |  |  |
| OCc1cccc(-c2nc(N3CCOCC3)c3ccc4c(ccn4Cc4ccccc4)c3n2)c1 [Example 83, [3-(7-benzyl-4-morpholin-4-yl-7H-pyrrolo[2,3-h]quinazolin-2-yl)phenyl]methanol] | 1700 | 320 | 123 |  |  |
| CS(=O)(=O)n1ccc2c3nc(-c4ccc(NC(=O)Nc5ccccc5)cc4)nc(N4CCOCC4)c3ccc21 [Example 84, 1-{4-[7-(methylsulfonyl)-4-morpholin-4-yl-7H-pyrrolo[2,3-h]quinazolin-2-yl]phenyl}-3-phenylurea] |  |  |  | 475 |  |
| CCOC(=O)Nc1ccc(-c2nc(N3CCOCC3)c3ccc4c(ccn4S(C)(=O)=O)c3n2)cc1 [Example 86, ethyl {4-[7-(methylsulfonyl)-4-morpholin-4-yl-7H-pyrrolo[2,3-h]quinazolin-2-yl]phenyl}carbamate] |  |  |  | 15500 |  |
| CS(=O)(=O)n1ccc2c3nc(-c4ccc(NC(=O)C5CC5)cc4)nc(N4CCOCC4)c3ccc21 [Example 87, N-{4-[7-(methylsulfonyl)-4-morpholin-4-yl-7H-pyrrolo[2,3-h]quinazolin-2-yl]phenyl}cyclopropanecarboxamide] |  |  |  | 5600 |  |
| CCCC(=O)Nc1ccc(-c2nc(N3CCOCC3)c3ccc4c(ccn4S(C)(=O)=O)c3n2)cc1 [Example 88, N-{4-[7-(methylsulfonyl)-4-morpholin-4-yl-7H-pyrrolo[2,3-h]quinazolin-2-yl]phenyl}butanamide] |  |  |  | > 20000 |  |
| COC(=O)Nc1ccc(-c2nc(N3CCOCC3)c3ccc4c(ccn4S(C)(=O)=O)c3n2)cc1 [Example 90, methyl {4-[7-(methylsulfonyl)-4-morpholin-4-yl-7H-pyrrolo[2,3-h]quinazolin-2-yl]phenyl}carbamate] |  |  |  | 5600 |  |
| CCC(=O)Nc1ccc(-c2nc(N3CCOCC3)c3ccc4c(ccn4S(C)(=O)=O)c3n2)cc1 [Example 91, N-{4-[7-(methylsulfonyl)-4-morpholin-4-yl-7H-pyrrolo[2,3-h]quinazolin-2-yl]phenyl}propanamide] |  |  |  | 6100 |  |
| CC(=O)Nc1ccc(-c2nc(N3CCOCC3)c3ccc4c(ccn4S(C)(=O)=O)c3n2)cc1 [Example 92, N-{4-[7-(methylsulfonyl)-4-morpholin-4-yl-7H-pyrrolo[2,3-h]quinazolin-2-yl]phenyl}acetamide] |  |  |  | 5250 |  |
| CCOC(=O)Nc1ccc(-c2nc(N3CCOCC3)c3ccc4c(ccn4CCN(C)C)c3n2)cc1 [Example 93, ethyl (4-{7-[2-(dimethylamino)ethyl]-4-morpholin-4-yl-7H-pyrrolo[2,3-h]quinazolin-2-yl}phenyl)carbamate] |  |  |  | > 20000 |  |
| CCNC(=O)Nc1ccc(-c2nc(N3CCOCC3)c3ccc4c(ccn4CCN(C)C)c3n2)cc1 [Example 94, 1-(4-{7-[2-(dimethylamino)ethyl]-4-morpholin-4-yl-7H-pyrrolo[2,3-h]quinazolin-2-yl}phenyl)-3-ethylurea] |  |  |  | 2000 |  |
| CN(C)CCn1ccc2c3nc(-c4ccc(NC(=O)Nc5ccccc5)cc4)nc(N4CCOCC4)c3ccc21 [Example 95, 1-(4-{7-[2-(dimethylamino)ethyl]-4-morpholin-4-yl-7H-pyrrolo[2,3-h]quinazolin-2-yl}phenyl)-3-phenylurea] | 50 |  |  | 1800 |  |
| CN(C)CCn1ccc2c3nc(-c4ccc(NC(=O)C5CC5)cc4)nc(N4CCOCC4)c3ccc21 [Example 96, N-(4-{7-[2-(dimethylamino)ethyl]-4-morpholin-4-yl-7H-pyrrolo[2,3-h]quinazolin-2-yl}phenyl)cyclopropanecarboxamide] | 5250 |  |  | > 20000 |  |

Second part, the compound after the results:

| IC50 ([1]; read-out: TOR Kinase IC50) [nM] | IC50 [2] [nM] | IC50 [3] [nM] | IC50 [4] [nM] | IC50 [1] [nM] | Structure (SMILES) |
| --- | --- | --- | --- | --- | --- |
| 6200 |  |  | > 20000 |  | CCCC(=O)Nc1ccc(-c2nc(N3CCOCC3)c3ccc4c(ccn4CCN(C)C)c3n2)cc1 [Example 97, N-(4-{7-[2-(dimethylamino)ethyl]-4-morpholin-4-yl-7H-pyrrolo[2,3-h]quinazolin-2-yl}phenyl)butanamide] |
| 2000 |  |  | > 20000 |  | COC(=O)Nc1ccc(-c2nc(N3CCOCC3)c3ccc4c(ccn4CCN(C)C)c3n2)cc1 [Example 98, methyl (4-{7-[2-(dimethylamino)ethyl]-4-morpholin-4-yl-7H-pyrrolo[2,3-h]quinazolin-2-yl}phenyl)carbamate] |
| 215 |  |  | 14500 |  | CC(C)NC(=O)Nc1ccc(-c2nc(N3CCOCC3)c3ccc4c(ccn4C)c3n2)cc1 [Example 99, 1-(1-methylethyl)-3-[4-(7-methyl-4-morpholin-4-yl-7H-pyrrolo[2,3-h]quinazolin-2-yl)phenyl]urea] |
| 500 |  |  | 16000 |  | Cn1ccc2c3nc(-c4ccc(NC(=O)NCC5CC5)cc4)nc(N4CCOCC4)c3ccc21 [Example 100, 1-(cyclopropylmethyl)-3-[4-(7-methyl-4-morpholin-4-yl-7H-pyrrolo[2,3-h]quinazolin-2-yl)phenyl]urea] |
| 1800 |  |  | > 20000 |  | COCCNC(=O)Nc1ccc(-c2nc(N3CCOCC3)c3ccc4c(ccn4C)c3n2)cc1 [Example 101, 1-(2-methoxyethyl)-3-[4-(7-methyl-4-morpholin-4-yl-7H-pyrrolo[2,3-h]quinazolin-2-yl)phenyl]urea] |
| 1500 |  |  | > 17000 |  | Cn1ccc2c3nc(-c4ccc(NC(=O)NCC5CCCO5)cc4)nc(N4CCOCC4)c3ccc21 (stereo not shown) [Example 102, 1-[4-(7-methyl-4-morpholin-4-yl-7H-pyrrolo[2,3-h]quinazolin-2-yl)phenyl]-3-(tetrahydrofuran-2-ylmethyl)urea] |
| 2400 |  |  | > 20000 |  | Cn1ccc2c3nc(-c4ccc(NC(=O)NCCCN5CCCC5)cc4)nc(N4CCOCC4)c3ccc21 [Example 104] |
| 2050 |  |  | > 20000 |  | Cn1ccc2c3nc(-c4ccc(NC(=O)NC5CCCC5)cc4)nc(N4CCOCC4)c3ccc21 [Example 105, 1-cyclopentyl-3-[4-(7-methyl-4-morpholin-4-yl-7H-pyrrolo[2,3-h]quinazolin-2-yl)phenyl]urea] |
| 1500 |  |  | 16500 |  | Cn1ccc2c3nc(-c4ccc(NC(=O)NC5CCC5)cc4)nc(N4CCOCC4)c3ccc21 [Example 106, 1-cyclobutyl-3-[4-(7-methyl-4-morpholin-4-yl-7H-pyrrolo[2,3-h]quinazolin-2-yl)phenyl]urea] |
| 7250 |  |  | > 20000 |  | Cn1ccc2c3nc(-c4ccc(NC(=O)NC5CCCCC5)cc4)nc(N4CCOCC4)c3ccc21 [Example 108, 1-cyclohexyl-3-[4-(7-methyl-4-morpholin-4-yl-7H-pyrrolo[2,3-h]quinazolin-2-yl)phenyl]urea] |
| 2050 |  |  | > 20000 |  | CCCOC(=O)Nc1ccc(-c2nc(N3CCOCC3)c3ccc4c(ccn4S(C)(=O)=O)c3n2)cc1 [Example 109, propyl {4-[7-(methylsulfonyl)-4-morpholin-4-yl-7H-pyrrolo[2,3-h]quinazolin-2-yl]phenyl}carbamate] |
| 2800 |  |  | > 20000 |  | CC(=O)Nc1ccc(-c2nc(N3CCOCC3)c3ccc4c(ccn4CCN(C)C)c3n2)cc1 [Example 112, N-(4-{7-[2-(dimethylamino)ethyl]-4-morpholin-4-yl-7H-pyrrolo[2,3-h]quinazolin-2-yl}phenyl)acetamide] |
|  |  |  | 10500 | 5550 | CC(=O)c1cccc(NC(=O)Nc2ccc(-c3nc(N4CCOCC4)c4ccc5c(ccn5C)c4n3)cc2)c1 [Example 114, 1-(3-acetylphenyl)-3-[4-(7-methyl-4-morpholin-4-yl-7H-pyrrolo[2,3-h]quinazolin-2-yl)phenyl]urea] |
| 470 |  |  | 4250 |  | CC(=O)c1ccc(NC(=O)Nc2ccc(-c3nc(N4CCOCC4)c4ccc5c(ccn5C)c4n3)cc2)cc1 [Example 115, 1-(4-acetylphenyl)-3-[4-(7-methyl-4-morpholin-4-yl-7H-pyrrolo[2,3-h]quinazolin-2-yl)phenyl]urea] |
| 1270 |  |  | > 20000 |  | Cc1noc(C)c1NC(=O)Nc1ccc(-c2nc(N3CCOCC3)c3ccc4c(ccn4C)c3n2)cc1 [Example 116, 1-(3,5-dimethylisoxazol-4-yl)-3-[4-(7-methyl-4-morpholin-4-yl-7H-pyrrolo[2,3-h]quinazolin-2-yl)phenyl]urea] |
| 600 |  |  | > 20000 |  | Cn1ccc2c3nc(-c4ccc(NC(=O)NC5CCS(=O)(=O)C5)cc4)nc(N4CCOCC4)c3ccc21 (stereo not shown) [Example 117, 1-(1,1-dioxidotetrahydrothiophen-3-yl)-3-[4-(7-methyl-4-morpholin-4-yl-7H-pyrrolo[2,3-h]quinazolin-2-yl)phenyl]urea] |
|  |  |  | 6500 |  | Cn1ccc2c3nc(-c4cccc(NC(=O)Nc5ccncc5)c4)nc(N4CCOCC4)c3ccc21 [Example 122, 1-[3-(7-methyl-4-morpholin-4-yl-7H-pyrrolo[2,3-h]quinazolin-2-yl)phenyl]-3-pyridin-4-ylurea] |
